Assays:
H460 xenograft = H460 xenograft growth in nude mice; assay type: in vivo, human; conditions: ephrin-A1-Fc 5 μg/g i.p. once every two days, five times, Alimta 150 mg/kg i.p. daily x 5 days
Procedure: FIGS. 16(A-B) illustrate, A) Systemic treatment with ephrin-A1-Fc, but not control Fc, inhibited the growth of H1975 NSCLC xenografts. Eight-week old NCR nude mice were injected with 2×10^6 H1975 cells s.c. into the hind flanks. One week later, when the tumors had reached an average of about 100 mm3, mice (5/group) were injected i.p. twice a week with Fc or ephrin-A1-Fc at 2.5 or 5.0 μg/g. Equal volume of PBS was used as control. The day of the first treatment was designated as day 1. Rapid tumor growth necessitated termination of experiment at day 18. B) Comparison between ephrin-A1-Fc and Alimta for therapeutic efficacy on H460 xenografts. Cell implantation and treatment were the same as in (A). Alimta/Pemetrexed was injected at 150 mg/kg, i.p daily×5 days), or ephrin-A1-Fc (5 μg/g, mouse, i.p, once every two days, for five times). Note ephrin-A1-Fc treatment achieved better efficacy of tumor growth inhibition than Alimta, a new drug for lung cancer therapy in this cell type. * Indicates significant difference between PBS and ephrin-A1-treated groups, p<0.05.
We next compared ephrin-A1-Fc and Alimta/Pemetrexed for therapeutic efficacy against H460 xenograft. H460 cells are derived from a lung adenocarcinoma that express moderate levels of EphA2 (not shown). […]

Akt = assay: Immunoblot of p-Akt (Ser473) in DU145 cells; assay type: cell-based, human; conditions: DU145-vector, then ephrin-A1 30 min
Procedure: (§1) A Immunoblot analysis of the expression and tyrosine phosphorylation of EphA2 in DU145 cells. Parental DU145 cells were stably infected with a retroviral vector expressing wild-type EphA2 or empty vector. Clonal puromycin-resistant cells were isolated and expanded. The selected cells at 70-80% confluence were stimulated with 2 μg/ml ephrin-A1-Fc for the indicated times. The total cell lysates were resolved by SDS-PAGE and then probed with rabbit polyclonal anti-p-EphA/B and anti-EphA2 antibodies. […] The cells were treated as described in (A). Cell lysates were subject to immunoblot with the indicated antibodies.
(§2) DU145-vector cells were pretreated with okadaic acid (10, 50, and 250 nM) for 1 h, followed by stimulation with ephrin-A1-Fc for 30 min. The total cellular lysates were prepared and subjected to immunoblot analyses as described in FIG. 1 using the indicated antibodies. Notes: Okadaic acid inhibits only PP2A at low concentrations (<100 nM), but it inhibits both PP1 and PP2A at higher concentrations (>100 nM).
(§3) A. Cells were treated with rapamycin (1 nM) in the absence or presence of ephrin-A1 (2 μg/ml) for the indicated times Immunoblot analysis was performed as described above. […]

ERK1/2 = assay: Immunoblot of p-ERK1/2 in DU145 cells; assay type: cell-based, human; conditions: DU145-vector, okadaic acid pretreatment 1 h, then ephrin-A1 30 min
Procedure: as §1, §2, §3

PP2A = conditions: low concentrations; cited from earlier work
PP1 = conditions: higher concentrations; cited from earlier work

Nc1nc2[nH]cc(CCc3ccc(C(=O)N[C@@H](CCC(=O)O)C(=O)O)cc3)c2c(=O)[nH]1 [Alimta, Pemetrexed]
growth of H460 xenograft (H460 xenograft): minimal effects

C=C1[C@@H](O)[C@@H]2O[C@]3(CC[C@H](/C=C/[C@@H](C)[C@@H]4CC(C)=C[C@@]5(O[C@H](C[C@@](C)(O)C(=O)O)CC[C@H]5O)O4)O3)CC[C@H]2O[C@@H]1[C@@H](O)C[C@H](C)[C@H]1O[C@@]2(CCCCO2)CC[C@H]1C [okadaic acid]
effect on Akt dephosphorylation induced by EphA2 activation (Akt; okadaic acid 250 nM pretreatment 1 h): completely blocked | effect on Akt dephosphorylation induced by EphA2 activation (Akt; okadaic acid 10 and 50 nM pretreatment 1 h): did not affect Akt dephosphorylation | effects on ERK1/2 under the same conditions (ERK1/2): not as pronounced | concentrations at which only PP2A is inhibited (PP2A): < 100 nM | concentrations at which both PP1 and PP2A are inhibited (PP1): > 100 nM
